pEC50: −log10 of the molar value. Where two headings read alike, the source gives them in different places.
Experiments:
[1] = biological target: T1, Tau K18 aggregates (Tau K18 fragment, amino acids 244 to 372 of human Tau441) (Homo sapiens, UniProt P10636); experiment: Tau K18 disaggregation assay by ThT; assay type: biochemical; conditions: 2 μM K18 aggregates, 160 to 0.04 μM compound, 30 min RT, ThT fluorescence
T1 construct: encompassing amino acids 244 to 372 of the longest isoform (2N4R) of human Tau441; host or cells: bacteria
T1 sequence (P10636 561-689): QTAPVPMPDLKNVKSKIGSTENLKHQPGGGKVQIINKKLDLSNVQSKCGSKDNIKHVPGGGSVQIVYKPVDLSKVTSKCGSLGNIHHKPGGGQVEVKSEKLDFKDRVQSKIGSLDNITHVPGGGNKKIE
Procedure: Tau K18 Disaggregation Assay by ThT
The Tau K18 fragment, encompassing amino acids 244 to 372 of the longest isoform (2N4R) of human Tau441, was expressed in bacteria and purified or bought from SignalChem. For the K18 disaggregation assay by ThT, 35 μM of recombinant K18 in PBS were aggregated for 24 hours at 37° C. in presence of 50 μM of heparin (Sigma-Aldrich) and 10 mM of DTT (Sigma-Aldrich) under shaking at 750 RPM. Compounds were dissolved in anhydrous dimethyl sulfoxide (DMSO, Sigma-Aldrich) to reach a concentration of 10 mM. K18 aggregates and serial dilutions of compounds were mixed together in PBS (volume 50 μL) to a final concentration of 2 μM of K18 aggregates and from 160 to 0.04 μM of compounds. The mixture was incubated for 30 minutes at room temperature (RT), then 40 μL of this mixture were transferred into a black 384-well plate assay (Perkin-Elmer) and mixed with 10 μL of 100 μM ThT in 250 mM glycine (both from Sigma-Aldrich) in PBS. Fluorescence (relative fluorescence units; RFU) was measured in monoplicate or duplicate on a Tecan reader (excitation: 440 nm; emission: 485 nm). Percentage of K18 disaggregation was then calculated and half maximal effective concentration (EC50) was determined using GraphPad Prism version 5 (GraphPad Software) assuming a one-binding site fitting model.

[2] = CSF/Plasma ratio determination, in-vivo pharmacokinetics mouse p.o.; set-up: species or system CD-1 male mice; conditions: for CSF/plasma AUC ratio / AUC(0-t): male, CD-1, po; for AUC(0-t): plasma, read-out: Plasma AUC0-last
Procedure: CSF/Plasma Ratio Determination
Test compounds were administered to CD-1 male mice as a single oral dose of 10 or 20 mg/kg of a homogenous suspension (10 mL/kg, 1 or 2 mg/mL in 0.5% CMC (w/v) in water) by gavage using a plastic syringe fitted with a metal gavage tube. Terminal blood, brain and CSF samples were collected from three animals at several time points, typically at 2, 4, 8 and 24 h post-dose.
Blood samples were transferred into 1.5-mL plastic tubes containing K2-EDTA (0.5M, 3 uL) as an anti-coagulant and placed on wet ice, and were then processed to obtain plasma by centrifugation at approximately 5° C. (3000 g, 15 min) within 30 min after collection. An aliquot of 10 μL sample was protein precipitated with 150 μL IS, the mixture was vortex-mixed well and centrifuged at 13000 rpm for 10 min, 4° C. 30 μL supernatant was then mixed with 30 μL water, vortex-mixed well and centrifuged at 4° C. 2 μL sample was injected for LC-MS/MS analysis.
The collected CSF was transferred to polypropylene microcentrifuge tubes. CSF samples were added with an equal volume of plasma. An aliquot of 6 μL sample was protein precipitated with 90 μL IS, the mixture was vortex-mixed well and centrifuged at 13000 rpm for 10 min, 4° C. 30 μL supernatant was then mixed with 30 μL water, vortex-mixed well and centrifuged at 4° C. 2 μL sample was injected for LC-MS/MS analysis.
Test substance concentration in plasma and CSF versus time data were analyzed by non-compartmental approaches; AUC0-last in plasma and CSF were calculated with the log-linear trapezoidal rule. CSF/Plasma ratio was calculated as follows:
AUC0-last(CSF)/AUC0-last(plasma)

[3] = biological target: T2, full-length Tau (flTau, 2N4R) aggregates (Homo sapiens, UniProt P10636); experiment: Tau disaggregation assay by DLS (dynamic light scattering); assay type: biochemical; conditions: 2 μM flTau aggregates, 20 μM compound, 60 min RT
T2 construct: 35 μM of recombinant full-length (fl)Tau in PBS were aggregated; made in house; host or cells: bacteria
T2 sequence (P10636 1-441 isoform P10636-8): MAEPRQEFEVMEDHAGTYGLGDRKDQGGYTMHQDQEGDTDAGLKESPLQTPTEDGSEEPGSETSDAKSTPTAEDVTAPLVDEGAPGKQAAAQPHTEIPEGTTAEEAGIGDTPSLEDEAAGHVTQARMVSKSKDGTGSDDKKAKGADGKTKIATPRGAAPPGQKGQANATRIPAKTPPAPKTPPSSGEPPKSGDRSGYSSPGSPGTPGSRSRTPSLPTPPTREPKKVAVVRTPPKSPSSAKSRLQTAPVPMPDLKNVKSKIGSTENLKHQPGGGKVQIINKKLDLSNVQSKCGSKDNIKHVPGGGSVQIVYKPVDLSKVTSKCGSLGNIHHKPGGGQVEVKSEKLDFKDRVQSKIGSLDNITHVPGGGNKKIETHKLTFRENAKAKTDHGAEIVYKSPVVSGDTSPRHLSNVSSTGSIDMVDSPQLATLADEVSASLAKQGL
Procedure: Tau disaggregation assay by DLS (dynamic light scattering)
The longest isoform of human Tau (2N4R; 441 amino acids) was expressed in bacteria. For the Tau disaggregation assay by DLS, 35 μM of recombinant full-length (fl)Tau in PBS were aggregated for 24 h at 37° C. in presence of 50 μM of heparin (Sigma-Aldrich) and 10 mM of DTT (Sigma-Aldrich) under shaking at 750 RPM. Morphomers™ were dissolved in DMSO (Sigma-Aldrich) to reach a concentration of 10 mM. flTau aggregates and compounds were mixed together in PBS (volume 80 μL) to a final concentration of 2 μM of flTau aggregates and 20 μM of Morphomers™. The mixture was incubated for 60 min at RT. Then […] of solution was transferred into a 40 μl cuvette (Malvern) and the size of flTau aggregates was measured with a Zetasizer Nano (Malvern) at an angle of 173° with 3 runs of 5 times 15 sec each. Number of events were taken into consideration to assess size of flTau aggregates. Percentage of disaggregation was then measured using the dynamic range between flTau monomers and flTau aggregates.

[4] = 20 mg/kg, AUC0-last(CSF)/AUC0-last(plasma)

pEC50 [1] | CSF AUC0-last ([2]; 20 mg/kg) | CSF/plasma AUC ratio [2, 4] | AUC(0-t) ([2]; 20 mg/kg) | DLS % Percentage of disaggregation (flTau) [3] | CSF/Plasma ratio [2, 4] | CSF AUC0-last ([2]; 10 mg/kg) | CSF/plasma AUC ratio ([2]; 10 mg/kg, AUC0-last(CSF)/AUC0-last(plasma)) | AUC(0-t) ([2]; 10 mg/kg) | Structure (SMILES)
> 5.00 | 66.5 ng·h/mL | 0.005 | 14500 ng·h/mL | – | – | – | – | – | Fc1cccc2c3c([nH]c12)CCN(c1ccc2oc(N4CCOCC4)nc2c1)C3 [Comparative Example 4]
> 5.00 | 327.0 ng·h/mL | 0.014 | 23700 ng·h/mL | 25% | highest CSF/plasma ratio | – | – | – | c1ccc2c3c([nH]c2c1)CCN(c1ccc2oc(N4CCOCC4)nc2c1)C3 [Example 1]
> 5.00 | 121.03 ng·h/mL | 0.007 | 17400 ng·h/mL | – | – | – | – | – | Fc1ccc2[nH]c3c(c2c1)CN(c1ccc2oc(N4CCOCC4)nc2c1)CC3 [Comparative Example 1]
> 5.00 | – | – | – | – | – | 19.705 ng·h/mL | 0.004 | 4590 ng·h/mL | Fc1cccc2[nH]c3c(c12)CN(c1ccc2oc(N4CCOCC4)nc2c1)CC3 [Comparative Example 3]
> 5.00 | – | – | – | – | – | – | – | – | c1ccc2c3c([nH]c2c1)CCN(c1ccc2oc(N4CCOCC4)nc2n1)C3 [Example 5]
> 5.00 | 56.70 ng·h/mL | 0.003 | 17800 ng·h/mL | – | – | – | – | – | Fc1ccc2c3c([nH]c2c1)CCN(c1ccc2oc(N4CCOCC4)nc2c1)C3 [Comparative Example 2]
